According to DBAASP:
Converted amounts (≈) assume the structure as drawn.

Legend:
Assay in all cases: ≥ marks a high value that may be exact or a test limit, other limits are often not marked, values filed in µg/mL are converted to µM
[1] = system: Staphylococcus aureus USA 300
[2] = system: Staphylococcus aureus NCTC 8325
[3] = system: Candida albicans ATCC 90028
[4] = system: Escherichia coli ATCC 25922
[5] = system: Staphylococcus aureus NCTC 10788
[6] = system: Bacillus subtilis ATCC 23857
[7] = system: Klebsiella pneumoniae ATCC 13883
[8] = system: Pseudomonas aeruginosa PAO1
[9] = system: Staphylococcus aureus
[10] = system: Micrococcus luteus
[11] = system: Bacillus subtilis 168

SMILES | MIC [2] [µM] | MIC [3] [µM] | MIC [4] [µM] | also measured
CC[C@H](C)[C@H](NC(=O)[C@H](C)NC(=O)[C@H](CCCCN)NC(=O)[C@H](C)N)C(=O)N[C@H](C(=O)N[C@@H](CCCN=C(N)N)C(=O)N[C@H](C(=O)N[C@H](C(=O)N[C@@H](CCC(=O)O)C(=O)N[C@@H](CCC(N)=O)C(=O)N[C@@H](C)C(=O)N1CCC[C@H]1C(=O)N[C@@H](CCCCN)C(=O)N[C@H](C(=O)N[C@@H](C)C(=O)N[C@@H](CCCCN)C(=O)N[C@@H](C)C(=O)N[C@@H](CCCCN)C(=O)N[C@@H](CCCCN)C(=O)N[C@@H](CO)C(=O)O)[C@@H](C)O)[C@@H](C)CC)[C@@H](C)O)C(C)C [AKAIVRTIEQAPKTAKAKKS] |  |  |  | MIC [1]: ≥ 128 µM
CC[C@H](C)[C@@H]1NC(=O)[C@H](C)NC(=O)[C@@H](NC(=O)[C@H](Cc2ccccc2)NC(=O)[C@@H](NC(=O)[C@H](CCCCN)NC(=O)[C@H](CO)NC(=O)[C@H](Cc2ccccc2)NC(=O)[C@@H](NC(=O)[C@H](CCCCN)NC(=O)[C@H](C)NC(=O)[C@H](C)NC(=O)[C@@H](NC(=O)[C@H](CO)NC(=O)[C@H](C)NC(=O)[C@@H](NC(=O)[C@@H](NC(=O)[C@@H]2CCCN2C(=O)[C@H](CC(C)C)NC(=O)[C@@H](N)Cc2ccccc2)[C@@H](C)CC)[C@@H](C)CC)C(C)C)C(C)C)[C@@H](C)CC)CSSC[C@@H](C(=O)O)NC(=O)[C@H](CCCCN)NC(=O)[C@H](CCCCN)NC(=O)[C@H](CO)NC1=O [FLPIIASVAAKVFSKIFCAISKKC] | 7 (≈ 18.1 µg/mL) | 7 (≈ 18.1 µg/mL) | 5 (≈ 12.9 µg/mL) | 
CC[C@H](C)[C@H](NC(=O)[C@@H](NC(=O)[C@@H]1CCCN1C(=O)[C@H](CC(C)C)NC(=O)[C@@H](N)Cc1ccccc1)C(C)C)C(=O)N[C@@H](C)C(=O)NCC(=O)N[C@@H](CC(C)C)C(=O)N[C@@H](CC(C)C)C(=O)N[C@@H](CO)C(=O)N[C@@H](CCCCN)C(=O)N[C@@H](CC(C)C)C(=O)N[C@@H](Cc1ccccc1)C(N)=O [FLPVIAGLLSKLF] | 8 (≈ 11.3 µg/mL) |  |  | MIC [5]: 8 µM (≈ 11.3 µg/mL)
CC[C@H](C)[C@H](NC(=O)CN)C(=O)N[C@@H](Cc1ccccc1)C(=O)N[C@@H](CC(N)=O)C(=O)N[C@H](C(=O)N[C@@H](Cc1ccccc1)C(=O)N[C@@H](CCCCN)C(=O)NCC(=O)N[C@@H](C)C(=O)N[C@@H](CC(C)C)C(=O)N[C@@H](CCCCN)C(=O)N[C@H](C(=O)N[C@@H](C)C(=O)NCC(=O)N[C@@H](CCCCN)C(=O)N[C@@H](Cc1cnc[nH]1)C(=O)N[C@H](C(=O)N[C@@H](C)C(=O)NCC(=O)N[C@@H](CO)C(=O)N[C@@H](CC(C)C)C(=O)N[C@@H](CC(C)C)C(=O)N[C@@H](CC(N)=O)C(=O)N[C@@H](CCC(N)=O)C(=O)N[C@@H](CC(C)C)C(=O)N[C@@H](CCCCN)C(=O)N[C@H]1CSSC[C@@H](C(=O)O)NC(=O)[C@H](CCC(=O)O)NC(=O)CNC(=O)[C@H](CO)NC(=O)[C@H](C(C)C)NC(=O)[C@H](CCCCN)NC1=O)C(C)C)[C@@H](C)O)C(C)C [GIFNVFKGALKTAGKHVAGSLLNQLKCKVSGEC] | 9 (≈ 30.8 µg/mL) | ≥ 40 | 4 (≈ 13.7 µg/mL) | 
CC[C@H](C)[C@H](NC(=O)CNC(=O)[C@H](C)NC(=O)[C@@H](NC(=O)[C@@H](NC(=O)CN)[C@@H](C)CC)[C@@H](C)CC)C(=O)N[C@@H](C)C(=O)N[C@H](C(=O)N[C@@H](CCCCN)C(=O)N[C@H](C(=O)N[C@@H](CCCCN)C(=O)N[C@@H](CCCCN)C(N)=O)[C@@H](C)CC)[C@@H](C)CC [GIIAGIAIKIKK] |  |  | 64 (≈ 78.3 µg/mL) | MIC [6]: ≥ 32 µM
CC[C@H](C)[C@H](NC(=O)CN)C(=O)N[C@H](C(=O)N[C@@H](CCCCN)C(=O)NCC(=O)N[C@H](C(=O)N[C@H](C(=O)N[C@@H](CCCCN)C(=O)N[C@@H](CCCCN)C(=O)N[C@H](C(=O)N[C@H](C(=O)N[C@@H](CCCCN)C(N)=O)[C@@H](C)CC)[C@@H](C)CC)[C@@H](C)CC)[C@@H](C)CC)[C@@H](C)CC [GIIKGIIKKIIK] |  |  | 64 (≈ 84.7 µg/mL) | MIC [6]: 8 µM (≈ 10.6 µg/mL)
CC[C@H](C)[C@H](NC(=O)[C@H](CCCCN)NC(=O)CNC(=O)[C@H](Cc1ccccc1)NC(=O)[C@H](CC(C)C)NC(=O)CN)C(=O)N[C@@H](CC(C)C)C(=O)NCC(=O)N[C@H](C(=O)NCC(=O)N[C@@H](CCCCN)C(=O)N[C@@H](CCCCN)C(=O)N[C@H](C(=O)N[C@@H](CC(C)C)C(=O)N[C@H]1CSSC[C@@H](C(=O)O)NC(=O)[C@H](CCSC)NC(=O)CNC(=O)[C@H](CO)NC(=O)[C@H](CC(C)C)NC(=O)CNC1=O)C(C)C)C(C)C [GLFGKILGVGKKVLCGLSGMC] | 12.5 (≈ 26 µg/mL) | ≥ 50 | 3 (≈ 6.24 µg/mL) | 

More lines, main results first:

MIC [2] [µM] | MIC [3] [µM] | MIC [4] [µM] | SMILES | also measured
≥ 100 | ≥ 100 | 13 (≈ 38.9 µg/mL) | CC[C@H](C)[C@H](NC(=O)[C@H](CCCCN)NC(=O)[C@H](CC(=O)O)NC(=O)[C@H](CC(C)C)NC(=O)[C@H](C)NC(=O)[C@H](CO)NC(=O)[C@H](C)NC(=O)[C@H](CC(C)C)NC(=O)[C@H](CC(C)C)NC(=O)[C@H](CC(N)=O)NC(=O)[C@H](CCCCN)NC(=O)[C@H](C)NC(=O)[C@H](C)NC(=O)CNC(=O)[C@H](CCCCN)NC(=O)[C@H](Cc1ccccc1)NC(=O)[C@@H](NC(=O)[C@H](CC(=O)O)NC(=O)[C@H](CCSC)NC(=O)[C@H](CC(C)C)NC(=O)CN)C(C)C)C(=O)N[C@@H](CCCN=C(N)N)C(=O)N[C@H]1CSSC[C@@H](C(=O)O)NC(=O)[C@H](CCCCN)NC(=O)[C@H]([C@@H](C)O)NC(=O)[C@H](C(C)C)NC(=O)[C@H](CCCCN)NC1=O [GLMDVFKGAAKNLLASALDKIRCKVTKC] | 
 |  | > 25 | CC(C)C[C@H](NC(=O)[C@H](CC(C)C)NC(=O)[C@H](CCCCN)NC(=O)CNC(=O)[C@H](CC(C)C)NC(=O)[C@H](CC(C)C)NC(=O)[C@H](CO)NC(=O)[C@H](CC(C)C)NC(=O)[C@H](CC(C)C)NC(=O)[C@H](CC(C)C)NC(=O)[C@H](CO)NC(=O)[C@H](CC(C)C)NC(=O)CN)C(N)=O [GLSLLLSLLGKLL] | MIC [7]: 25 µM (≈ 33.5 µg/mL); MIC [8]: > 25 µM; MIC [1]: 1.6 µM (≈ 2.14 µg/mL)
 |  | 4.39 (≈ 8.3 µg/mL) | CC(C)C[C@H](NC(=O)[C@H](CC(=O)O)NC(=O)[C@H](CC(N)=O)NC(=O)[C@H](C)NC(=O)[C@H](CC(N)=O)NC(=O)[C@H](CC(=O)O)NC(=O)[C@@H](N)C(C)C)C(=O)N[C@@H](CC(C)C)C(=O)N[C@@H](CO)C(=O)N[C@@H](CCCCN)C(=O)N[C@H](C(=O)N[C@@H](CCCCN)C(=O)N[C@@H](CCCCN)C(=O)N[C@@H](CC(=O)O)C(=O)N[C@@H](CCCCN)C(=O)N[C@@H](CO)C(=O)N[C@@H](CC(=O)O)C(=O)O)C(C)C [VDNANDLLSKVKKDKSD] | MIC [9]: 8.26 µM (≈ 15.6 µg/mL); MIC [10]: 4.39 µM (≈ 8.3 µg/mL); MIC [11]: 1.11 µM (≈ 2.1 µg/mL)
 |  | 15.9 (≈ 31.2 µg/mL) | CC[C@H](C)[C@H](NC(=O)CNC(=O)[C@H](CC(C)C)NC(=O)[C@H](CO)NC(=O)[C@H](CCC(=O)O)NC(=O)[C@H](CCSC)NC(=O)[C@H](CCCCN)NC(=O)[C@H](C)NC(=O)[C@H](CCCCN)NC(=O)[C@H](CC(=O)O)NC(=O)[C@@H](NC(=O)[C@@H](N)C(C)C)[C@@H](C)CC)C(=O)N[C@H](C(=O)N[C@@H](CO)C(=O)N[C@@H](CCCN=C(N)N)C(=O)N[C@@H](CC(=O)O)C(=O)N[C@H](C(=O)N[C@H](C(=O)O)[C@@H](C)O)[C@@H](C)O)[C@@H](C)O [VIDKAKMESLGITSRDTT] | MIC [9]: 15.9 µM (≈ 31.2 µg/mL); MIC [10]: 7.94 µM (≈ 15.6 µg/mL); MIC [11]: 7.94 µM (≈ 15.6 µg/mL)
